Assay results as given in patent US20180186769A1, “6-AMINO-5-FLUORO-5-(FLUOROMETHYL)-2,3,4,5-TETRAHYDROPYRIDIN-2-YL-PHENYL-5-(METHOXY-D3)-PYRAZINE-2-CARBOXAMIDES AND FLUORINATED DERIVATIVES THEREOF AS BACE1 INHIBITORS” (H. Lundbeck A/S, priority 2016, published 2018).

Assays:
[1] = Clearance in hepatocytes, human; format: in vitro ADME; settings: read-out: CLint, Human (L/h/kg) ± SD (converted)
Source text: (§1) Deuterated compounds were compared to their non-deuterated parent counterparts to determine the impact of deuteration on clearance results

Aβ40 = test: Aβ levels in rat brain and plasma following BACE1 inhibition (Aβ40 ELISA); format: in vivo, Sprague Dawley rats; settings: p.o.
Description: Assessment of […] in rat brain and plasma following BACE1 inhibition.
Young adult Male Sprague Dawley rats of approximately 250 g weight were purchased from Charles River and received vehicle (2.5% HP betaCD+1M MeSO4, pH 2.5) or 0-40 mg/kg of test compounds (dissolved in vehicle) by oral gavage (p.o). The compounds are dosed at a volume of 5 ml/kg. Cohorts of 5-10 animals were established for each treatment condition.
Studies were set up as acute dose response treatment studies were samples were taken at T=180 minutes after initial dosing, or as 12 h or 24 h timecourse treatment studies. At the end of the test period, the animals were stunned and decapitated with a guillotine. Trunk-blood was sampled in EDTA coated tubes after decapitation of the animal. The blood was centrifuged at 2200G at 4° C. for 15 minutes and the plasma was collected and frozen at −80° C. The blood was aliquoted for Aβ ELISA and DMPK analysis. Immediately following sacrifice, the brain was extracted and split into 2 halves. The left half was dissected; with the front forebrain taken for Aβ ELISA and the remainder used for DMPK analysis. These samples were also snap frozen on dry ice and stored at −80° C. until use for analysis. The right hemibrains were snap frozen on dry ice and stored at −80° C. for independent confirmatory Aβ ELISA evalution.
The cortex samples were thawed slightly on wet ice before they were homogenized with a small volume dispersing instrument (T10 basic ULTRA-TURRAX®) which was set at speed 5 for approximately 5-7 sec. The tissue was processed in a 10 times volume of the weight, for example 100 mg of tissue was homogenized in […] of Homogenization buffer. Homogenization buffer: 50 ml Milli Q water+[…]+0.2% Diethylamin (DEA)+1 tablet of Complete Protease inhibitor cocktail+[…] 4-(2-aminoethyl) benzenesulfonyl fluoride hydrochloride irreversible serine protease inhibitor (AEBSF).
After homogenization 450 μL aliquots of the samples are collected into a 1.5 ml Eppendorf tube and placed on wet ice, 0.5% NP-40 (50 ul) was added to all samples and then they were incubated on ice for 30 min. After which all samples were sonicated using an Ultrasonic homogenizer with 20 kHz homogeneous sound (SONOPLUS HD2070, Bandelin Electronic) 10 pulse set at 12-13% power to extract all the Aβ species. The samples were then centrifuged (Ole Dich 157 MPRF Micro centrifuge) at 20000G for 20 minutes at 4° C. After centrifugation […] of the supernatant was pipetted into 600 μL microtubes tubes and neutralized with 15 µL of 1M Tris-HCL buffer.
WAKO 294-62501 Human/Rat Abeta amyloid-40 kit was used for all ELISA analyses. 30 μL plasma samples or 30 μL of the cortex supernatants generated as described above were placed in 600 μL microtubes tubes on wet ice. To this 30 μL of 8M Urea (AppliChem A1049, 9025) are added to generate a 2-fold dilution. Both plasma and cortex supernatants are incubated on ice for 30 min. Standard rows were prepared from the standard peptide stock provided in the kit and standard diluent containing 1.6M Urea (200 μL 8M Urea+800 μL of standard diluent) and 0.8M Urea (400 μL 8M Urea+[…] Standard diluent). A serial 2-fold dilution of Aβ40 from 100 pmol/ml to 0 pmol/L was prepared for the assay.
After incubation with urea, all samples were further diluted by addition of 5 times standard diluent from the Kit. This was done by adding 240 μL Standard Diluent to 60 μL sample/urea mixture, which was then mixed well. 100 μL of each diluted sample was pipetted into designated wells of the ELISA plate in duplicates. The plate was then covered and incubated overnight at 4° C. The following day, the ELISA kit was brought to room temperature before use. The incubated plate was washed 5 times with the 20× washing solution diluted in Milli Q water. 100 μL HRP-conjugate was applied to each well, and the plate was covered and incubates at 4° C. for 1 hr. The wash was repeated again for 5 times. […]

[2] = Clearance in microsomes, cyno; format: in vitro ADME; settings: cynomolgus monkey, 1 microM, read-out: CLint, Cyno (L/h/kg) ± SD (converted)
Source text: as §1

- CLint scaled at 0.1 µM ([1]; 0.1 microM): < 0.1 L/h/kg
- CLint scaled at 0.3 µM ([1]; 0.3 microM): < 0.1 L/h/kg
- CLint scaled at 1 µM ([1]; 1 microM): < 0.1 L/h/kg
- CLint scaled at 1 µM [2]: 10 L/h/kg
SMILES: [2H]C([2H])([2H])Oc1cnc(C(=O)Nc2ccc(F)c([C@]3(C)CC[C@@](F)(CF)C(N)=N3)c2)cn1 [Example 1, N-(3-((2S,5S)-6-amino-5-fluoro-5-(fluoromethyl)-2-methyl-2,3,4,5-tetrahydropyridin-2-yl)-4-fluorophenyl)-5-(methoxy-d3)pyrazine-2-carboxamide]
- Aβ40 reduction (%) brain (Aβ40; 10 mg/kg, 0.5 h): −0.3%
- Aβ40 reduction (%) plasma (Aβ40; 10 mg/kg, 0.5 h): −0.4%
- Aβ40 reduction (%) brain (Aβ40; 10 mg/kg, 1 h): 17.2%
- Aβ40 reduction (%) plasma (Aβ40; 10 mg/kg, 1 h): 29.5%
- Aβ40 reduction (%) brain (Aβ40; 10 mg/kg, 3 h): 38.3%
- Aβ40 reduction (%) plasma (Aβ40; 10 mg/kg, 3 h): 21.7%
- Aβ40 reduction (%) brain (Aβ40; 10 mg/kg, 6 h): 39.4%
- Aβ40 reduction (%) plasma (Aβ40; 10 mg/kg, 6 h): 15.5%
- Aβ40 reduction (%) brain (Aβ40; 10 mg/kg, 12 h): 13.7%
- Aβ40 reduction (%) plasma (Aβ40; 10 mg/kg, 12 h): 20.7%
- Aβ40 reduction (%) brain (Aβ40; 20 mg/kg, 0.5 h): 14.7%
- Aβ40 reduction (%) plasma (Aβ40; 20 mg/kg, 0.5 h): 36.5%
- Aβ40 reduction (%) brain (Aβ40; 20 mg/kg, 1 h): 29.7%
- Aβ40 reduction (%) plasma (Aβ40; 20 mg/kg, 1 h): 41.4%
- Aβ40 reduction (%) brain (Aβ40; 20 mg/kg, 3 h): 38.5%
- Aβ40 reduction (%) plasma (Aβ40; 20 mg/kg, 3 h): 34.5%
- Aβ40 reduction (%) brain (Aβ40; 20 mg/kg, 6 h): 42.6%
- Aβ40 reduction (%) plasma (Aβ40; 20 mg/kg, 6 h): 36.9%
- Aβ40 reduction (%) brain (Aβ40; 20 mg/kg, 12 h): 34.5%
- Aβ40 reduction (%) plasma (Aβ40; 20 mg/kg, 12 h): 41.3%
- Aβ40 reduction (%) brain (Aβ40; 40 mg/kg, 0.5 h): 39.8%
- Aβ40 reduction (%) plasma (Aβ40; 40 mg/kg, 0.5 h): 43.0%
- Aβ40 reduction (%) brain (Aβ40; 40 mg/kg, 1 h): 43.9%
- Aβ40 reduction (%) plasma (Aβ40; 40 mg/kg, 1 h): 47.8%
- Aβ40 reduction (%) brain (Aβ40; 40 mg/kg, 3 h): 50.6%
- Aβ40 reduction (%) plasma (Aβ40; 40 mg/kg, 3 h): 47.1%
- Aβ40 reduction (%) brain (Aβ40; 40 mg/kg, 6 h): 59.5%
- Aβ40 reduction (%) plasma (Aβ40; 40 mg/kg, 6 h): 49.9%
- Aβ40 reduction (%) brain (Aβ40; 40 mg/kg, 12 h): 57.7%
- Aβ40 reduction (%) plasma (Aβ40; 40 mg/kg, 12 h): 41.5%
